How the values were obtained:
Assay type in all cases: cell-based, human
Settings in all cases: 72 h
CCRF-CEM = test: Cytotoxicity (XTT) on CCRF-CEM cells
Description: (§1) The cytotoxicity of the substances was measured on four tumour cell lines: CCRF-CEM, HepG2, Hela, HL-60. All cell lines were purchased from ATCC (Manassas, VA, USA). Cells were cultured in RPMI-1640 or DMEM medium containing 10% (wt/wt) FBS and 1% (wt/wt) GlutaMax. Cells were distributed at 2,000-10,000 per well of a 384-well plate (Thermo Fisher Scientific, Waltham, USA) and incubated overnight. After 24 hours, test substance solutions (10 or 100 μmol·l^−1) were added to the wells and the cells were incubated with the test substances at 37° C. and 5% (vol./vol.) CO2 for another 72 h. XTT dye (XTT cell proliferation kit II, Roche Diagnostics GmbH, Mannheim, Germany) was added to the wells according to the manufacturer's protocol. After one hour of incubation with the dye, the absorbance at 495 nm was measured and the signal was compared with the control (100% viability=cells without test substance).

HL-60 = test: Cytotoxicity (XTT) on HL-60 cells
Description: as §1

HepG2 = test: Cytotoxicity (XTT) on HepG2 cells
Description: as §1

Hela = test: Cytotoxicity (XTT) on Hela cells
Description: as §1

Compound | Cell viability CEM 10 μM (CCRF-CEM) [% vs. control] | Cell viability CEM 100 μM (CCRF-CEM) [% vs. control] | Cell viability HL60 10 μM (HL-60) [% vs. control] | Cell viability HL60 100 μM (HL-60) [% vs. control] | Cell viability HepG2 10 μM (HepG2) [% vs. control] | Cell viability HepG2 100 μM (HepG2) [% vs. control] | Cell viability HeLa S3 10 μM (Hela) [% vs. control] | Cell viability HeLa S3 100 μM (Hela) [% vs. control]
COC(=O)C(C)NC(=O)C(=O)[C@@H]1CCCN1C(=O)CNC(=O)c1ccnc2ccccc12 (mixture of isomers) [Compound 3m, Methyl (2-oxo-2-((S)-1-((quinoline-4-carbonyl)glycyl)pyrrolidin-2-yl)acetyl)alaninate] | 97 | 120 | 102 | 124 | 91 | 105 | 108 | 104
O=C(NCCc1ccccc1)C(=O)[C@@H]1CCCN1C(=O)CNC(=O)c1ccnc2ccccc12 [Compound 3d, (S)—N-(2-Oxo-2-(2-(2-oxo-2-(phenethylamino)acetyl)pyrrolidin-1-yl)ethyl)quinoline-4-carboxamide] | 105 | 85 | 110 | 107 | 88 | 89 | 86 | 81
COc1ccc(NC(=O)C(=O)[C@@H]2CCCN2C(=O)CNC(=O)c2ccnc3ccccc23)cc1 [Compound 3f, (S)—N-(2-(2-(2-((4-Methoxyphenyl)amino)-2-oxoacetyl)pyrrolidin-1-yl)-2-oxoethyl)quinoline-4-carboxamide] | 92 | 84 | 110 | 108 | 95 | 82 | 103 | 94
COC(=O)c1ccc(NC(=O)C(=O)[C@@H]2CCCN2C(=O)CNC(=O)c2ccnc3ccccc23)cc1 [Compound 3g, Methyl (S)-4-(2-oxo-2-(1-((quinoline-4-carbonyl)glycyl)pyrrolidin-2-yl)acetamido)benzoate] | 106 | 73 | 100 | 103 | 93 | 63 | 98 | 89
O=C(NC1CC1)C(=O)[C@@H]1CCCN1C(=O)CNC(=O)c1ccnc2ccccc12 [Compound 3h, (S)—N-(2-(2-(2-(Cyclopropylamino)-2-oxoacetyl)pyrrolidin-1-yl)-2-oxoethyl)quinoline-4-carboxamide] | 94 | 115 | 110 | 95 | 88 | 108 | 89 | 103
CC(C)NC(=O)C(=O)[C@@H]1CCCN1C(=O)CNC(=O)c1ccnc2ccccc12 [Compound 3i, (S)—N-(2-(2-(2-(Isopropylamino)-2-oxoacetyl)pyrrolidin-1-yl)-2-oxoethyl)quinoline-4-carboxamide] | 93 | 117 | 111 | 100 | 87 | 110 | 78 | 105
COC(=O)CNC(=O)C(=O)[C@@H]1CCCN1C(=O)CNC(=O)c1ccnc2ccccc12 [Compound 3k, Methyl (S)-(2-oxo-2-(1-((quinoline-4-carbonyl)glycyl)pyrrolidin-2-yl)acetyl)glycinate] | 110 | 123 | 112 | 103 | 109 | 105 | 104 | 94
CN(C)C(=O)CNC(=O)C(=O)[C@@H]1CCCN1C(=O)CNC(=O)c1ccnc2ccccc12 [Compound 5a, (S)—N-(2-(2-(2-((2-(Dimethylamino)-2-oxoethyl)amino)-2-oxoacetyl)pyrrolidin-1-yl)-2-oxoethyl)quinoline-4-carboxamide] | 104 | 100 | 105 | 76 | 91 | 104 | 92 | 102
O=C(NCC(=O)N1CCCC1)C(=O)[C@@H]1CCCN1C(=O)CNC(=O)c1ccnc2ccccc12 [Compound 5b] | 90 | 109 | 111 | 86 | 83 | 106 | 93 | 101
CC(C)NC(=O)CNC(=O)C(=O)[C@@H]1CCCN1C(=O)CNC(=O)c1ccnc2ccccc12 [Compound 5c, (S)—N-(2-(2-(2-((2-(Isopropylamino)-2-oxoethyl)amino)-2-oxoacetyl)pyrrolidin-1-yl)-2-oxoethyl)quinoline-4-carboxamide] | 113 | 108 | 86 | 89 | 96 | 108 | 119 | 99
O=C(CNC(=O)C(=O)[C@@H]1CCCN1C(=O)CNC(=O)c1ccnc2ccccc12)NCc1ccccc1 [Compound 5d, (S)—N-(2-(2-(2-((2-(Benzylamino)-2-oxoethyl)amino)-2-oxoacetyl)pyrrolidin-1-yl)-2-oxoethyl)quinoline-4-carboxamide] | 89 | 107 | 112 | 95 | 82 | 89 | 95 | 96
COC(=O)[C@H](CC(C)C)NC(=O)CNC(=O)C(=O)[C@@H]1CCCN1C(=O)CNC(=O)c1ccnc2ccccc12 [Compound 5e, Methyl (2-oxo-2-((S)-1-((quinoline-4-carbonyl)glycyl)pyrrolidin-2-yl)acetyl)glycyl-L-leucinate] | 96 | 104 | 112 | 83 | 75 | 110 | 99 | 106
